From patent US11629166B2, “Compound for treating clostridium difficile” (priority 2014, dated 2023)

What was measured:
Format in all cases: cell-based, Clostridium Difficile
[1] = test system: C. Difficile NCTC 11204 and ribotype 027 (R20291) spores; assay: Germination tests, heat shock method (heat vs ice); conditions: 2% (w/v) germination solution, 1 hour, strains 11204 and 027; for >1 log reduction on heat: then 70° C. for 20 minutes, reduction suggests germinant; for >1 log reduction on ice: control samples kept on ice, reduction suggests sporicide or germinant/antimicrobial
Method: Many of the synthesised compounds were tested for their germinating and antimicrobial abilities against C. Difficile. Due to the insolubility of some of the compounds in water, DMSO, ethanol and methanol were used to dissolve the compounds.
The C. Difficile reference strain, NCTC 11204 and C. Difficile ribotype 027 (R20291) (Anaerobic Reference Laboratory, Cardiff, UK) were used during testing.
Spore suspensions of C. Difficile were prepared following the method proposed by Shetty et al. (1999). Briefly, Columbia base agar plates were inoculated with the relevant strain of C. Difficile and incubated for 72 hours anaerobically at 37° C. (MiniMACS anaerobic cabinet, Don Whitley Scientific, Shipley, UK). Then, the plates were removed and left or 24 hours in aerobic conditions at room temperature. Colonies were then harvested into 20 mL of 50% (w/v) ethanol and 50% saline, and vortex thoroughly. These were stored at 4° C. until needed.
All experiments were performed in triplicate using spore suspensions containing 1×10^7 CFU mL^−1 spores of C. difficile NCTC 11204 and ribotype 027.
Before use, 1 mL of spores were centrifuged at 13000 rpm for 10 minutes (Spectrafuge 24D; Labnet, Woodbridge, USA). The supernatant was discarded, and the pellet resuspended in 1 mL sterile distilled water and vortex mixed thoroughly.
Germination solutions were prepared using 2% (w/v) of the compound in diluent (DMSO, ethanol, methanol, water) plus double strength thioglycollate medium (Oxoid, UK).
For the heat shock method, 100 μl spores were exposed to 100 μl of the germination solution and incubated at room temperature in air for 1 hour. The entire 200 μl sample was then added to 800 μl sterile distilled water to dilute out the germinant to ineffective concentrations. Samples were placed on heat at 70° C. for 20 minutes to eliminate any germinated, metabolically active spores. Control samples were kept on ice. Solutions were then diluted accordingly using sterile distilled water, and cultured onto fastidious anaerobic agar (Lab M, Bury, UK), supplemented with 0.1% (w/v) sodium taurocholate (ST) and 5% (w/v) defibrinated horse blood using the Miles and Misra method (Miles et al., 1938). These were then incubated anaerobically for 48 hours at 37° C. (MiniMACS anaerobic cabinet, Don Whitley Scientific, Shipley, UK) and the CFU mL^−1 counted.
The results from the table above show the compounds that gave a 1 log reduction or more between the initial spore count and the spore count after the heat and ice treatment. […] Due to the nature of this test, it is difficult to distinguish between the two.

[2] = test system: C. Difficile spores; assay: Germination and antimicrobial efficiency (dual activity) of compound 129 in HDPE; conditions: for % Reduction 2 hours / Log Reduction 2 hours / % Reduction 24 hours / Log Reduction 24 hours / % Reduction 96 hours / Log Reduction 96 hours: HDPE polymer
Excerpt: Reactively processed HDPE polymer containing compound 129 is shown to have the ability to both germinate the spores of C. […] This exemplifies, therefore, the dual action of compound 129 and its efficacy both as a germinant and an antimicrobial.

[3] = test system: C. Difficile spores; assay: Germination activity of compound 129 reactively processed with HDPE after subsequent exposure to ethanol; conditions: for % Reduction 2 hours / Log Reduction 2 hours / % Reduction 24 hours / Log Reduction 24 hours / % Reduction 96 hours / Log Reduction 96 hours: HDPE polymer film, after ethanol exposure
Method: HDPE (high density polyethylene) samples containing the modified bile salt compound 129, reactively processed under different compression moulding conditions, were tested to determine the germination activity. […] Difficile spores. This confirms the germination activity of compound 129 when incorporated into HDPE by reactive processing.

SMILES: C=CC[N+](C)(C)CCCNC(=O)CC[C@@H](C)[C@H]1CCC2C3C(C[C@H](O)[C@@]21C)[C@@]1(C)CC[C@@H](O)CC1C[C@H]3O.[Br-] (stereo partly shown) [Compound 34, 3-cholanamidopropyl-allyl-dimethyl-ammonium;bromide]
- >1 log reduction on heat [1]: yes

SMILES: C[C@H](CCC(=O)NCCN1CCCC1)[C@H]1CC[C@H]2[C@@H]3[C@H](O)C[C@@H]4C[C@H](O)CC[C@]4(C)[C@H]3C[C@H](O)[C@]12C [Compound 10]
- >1 log reduction on heat [1]: Yes (11204)

SMILES: CCC[N+]1(CCNC(=O)CC[C@@H](C)[C@H]2CC[C@H]3[C@@H]4[C@H](O)C[C@@H]5C[C@H](O)CC[C@]5(C)[C@H]4C[C@H](O)[C@]23C)CCCC1.[I-] [Compound 45]
- >1 log reduction on ice [1]: yes
- >1 log reduction on heat [1]: yes

SMILES: C[C@H](CCC(=O)NCC[N+]1(Cc2ccccc2)CCCC1)[C@H]1CC[C@H]2[C@@H]3[C@H](O)C[C@@H]4C[C@H](O)CC[C@]4(C)[C@H]3C[C@H](O)[C@]12C [Compound 50]
- >1 log reduction on ice [1]: yes
- >1 log reduction on heat [1]: yes

SMILES: C[C@H](CCC(=O)NCCC[N+](C)(C)c1ccc(C(=O)c2ccccc2)cc1)[C@H]1CC[C@H]2[C@@H]3[C@H](O)C[C@@H]4C[C@H](O)CC[C@]4(C)[C@H]3C[C@H](O)[C@]12C.[Br-] [2/148]
- >1 log reduction on heat [1]: Yes (027)

SMILES: CCCCCCCCCCCCCCCCCCNC(=O)CC[C@@H](C)[C@H]1CC[C@H]2[C@@H]3[C@H](O)C[C@@H]4C[C@H](O)CC[C@]4(C)[C@H]3C[C@H](O)[C@]12C [Compound 16]
- >1 log reduction on heat [1]: Yes (11204 and 027)

SMILES: C=Cc1ccc(C[N+](C)(C)CCNC(=O)CC[C@@H](C)[C@H]2CCC3C4CCC5C[C@H](O)CC[C@]5(C)C4CC[C@@]32C)cc1.[Cl-] (stereo partly drawn) [Compound 129, 2-[[(4R)-4-[(3R,10S,13R,17R)-3-hydroxy-10,13-dimethyl-2,3,4,5,6,7,8,9,11,-12,14,15,16,17-tetradecahydro-1H-cyclopenta[a]phenanthren-17-yl]pentanoyl]-amino]ethyl-dimethyl-[(4-vinylphenyl)methyl]ammonium chloride]
- % Reduction 2 hours ([2]; 3% T101 165° C.): 96.9%
- Log Reduction 2 hours ([2]; 3% T101 165° C.): 1.563 Log
- % Reduction 24 hours ([2]; 3% T101 165° C.): 86.9%
- Log Reduction 24 hours ([2]; 3% T101 165° C.): 0.940 Log
- % Reduction 96 hours ([2]; 3% T101 165° C.): 78.0%
- Log Reduction 96 hours ([2]; 3% T101 165° C.): 0.714 Log
- % Reduction 2 hours ([2]; 3% T101 170° C.): 79.6%
- Log Reduction 2 hours ([2]; 3% T101 170° C.): 0.747 Log
- % Reduction 24 hours ([2]; 3% T101 170° C.): 75.4%
- Log Reduction 24 hours ([2]; 3% T101 170° C.): 0.666 Log
- % Reduction 96 hours ([2]; 3% T101 170° C.): 88.5%
- Log Reduction 96 hours ([2]; 3% T101 170° C.): 0.998 Log
- % Reduction 2 hours ([2]; 6% T101 160° C.): 0.0%
- Log Reduction 2 hours ([2]; 6% T101 160° C.): 0.057 Log
- % Reduction 24 hours ([2]; 6% T101 160° C.): 44.8%
- Log Reduction 24 hours ([2]; 6% T101 160° C.): 0.315 Log
- % Reduction 96 hours ([2]; 6% T101 160° C.): 86.8%
- Log Reduction 96 hours ([2]; 6% T101 160° C.): 0.936 Log
- spore reduction ([2]; reactive processing of the polymer at 170° C.): 79.6%
- reduction of the subsequent metabolically active bio-load after spore germination ([2]; reactively processed HDPE polymer containing compound 129): 96.9%
- germination activity, lower vs higher processing temperature ([3]; 3% films, samples processed at the lower temperature (165° C. vs 170° C.), after 24 and 46 hours): slightly higher level of germination activity
- % Reduction 2 hours ([3]; 3% T101 160° C.): 79.8%
- Log Reduction 2 hours ([3]; 3% T101 160° C.): 0.752 Log
- % Reduction 24 hours ([3]; 3% T101 160° C.): 67.6%
- Log Reduction 24 hours ([3]; 3% T101 160° C.): 0.546 Log
- % Reduction 96 hours ([3]; 3% T101 160° C.): 69.8%
- Log Reduction 96 hours ([3]; 3% T101 160° C.): 0.577 Log
- % Reduction 2 hours ([3]; 3% T101 165° C.): 99.2%
- Log Reduction 2 hours ([3]; 3% T101 165° C.): 2.165 Log
- % Reduction 24 hours ([3]; 3% T101 165° C.): 97.1%
- Log Reduction 24 hours ([3]; 3% T101 165° C.): 1.598 Log
- % Reduction 96 hours ([3]; 3% T101 165° C.): 92.0%
- Log Reduction 96 hours ([3]; 3% T101 165° C.): 1.154 Log
- % Reduction 2 hours ([3]; 3% T101 170° C.): 99.2%
- Log Reduction 2 hours ([3]; 3% T101 170° C.): 2.165 Log
- % Reduction 24 hours ([3]; 3% T101 170° C.): 87.8%
- Log Reduction 24 hours ([3]; 3% T101 170° C.): 0.971 Log
- % Reduction 96 hours ([3]; 3% T101 170° C.): 82.0%
- Log Reduction 96 hours ([3]; 3% T101 170° C.): 0.802 Log
- germination activity ([3]; HDPE samples with a higher amount of compound 129 (6%)): did not perform well
- Log reduction compared to the HDPE/peroxide T101 control ([3]; polymer film containing 3% of compound 129, prepared both at 165° C. and 170° C., at 2 hours): 2.2 Log
- reduction in C. Difficile spores ([3]; prepared at 165° C./170° C., following subsequent exposure to ethanol): 99.2%

SMILES: C[C@H](CCC(=O)NCC[N+]1(c2ccc(C(=O)c3ccccc3)cc2)CCCC1)[C@H]1CC[C@H]2[C@@H]3[C@H](O)C[C@@H]4C[C@H](O)CC[C@]4(C)[C@H]3C[C@H](O)[C@]12C.[Br-] [2/150]
- >1 log reduction on ice [1]: Yes (11204)

SMILES: C[C@H](CCC(=O)NCc1ccccc1)[C@H]1CC[C@H]2[C@@H]3[C@H](O)C[C@@H]4C[C@H](O)CC[C@]4(C)[C@H]3C[C@H](O)[C@]12C [Compound 2, cholic acid benzyl amide]
- >1 log reduction on ice [1]: Yes (11204)

SMILES: CCCCCC[N+](C)(C)CCCNC(=O)CC[C@@H](C)[C@H]1CCC2C3C(C[C@H](O)[C@@]21C)[C@@]1(C)CC[C@@H](O)CC1C[C@H]3O (stereo partly shown) [Compound 29]
- >1 log reduction on heat [1]: yes

SMILES: CCCCN(CCCC)CCCNC(=O)CC[C@@H](C)[C@H]1CC[C@H]2[C@@H]3[C@H](O)C[C@@H]4C[C@H](O)CC[C@]4(C)[C@H]3C[C@H](O)[C@]12C [Compound 7]
- >1 log reduction on ice [1]: Yes (11204)
- >1 log reduction on heat [1]: Yes (11204)
